Here are results for 9 compounds from patent US11643429B2, “Compounds and methods for the treatment of ocular disorders” (Azura Ophthalmics Ltd., priority 2019, dated 2023).

Structures are written as SMILES. Read-outs that look alike come from different tables or passages of the source.

A short description of data set [1]: Rabbit Cornea Homogenate Stability Assay (Rabbit Cornea Esterase Assay). Conditions: New Zealand White, 37° C., half-life of parent conjugate. Format: in vitro ADME. On the procedure: Determining Rabbit Cornea Homogenate stability of the test compounds was performed using HPLC-MS. The assay was performed at two concentrations of Rabbit Cornea Homogenate (0.15 mg/ml and 0.45 mg/ml total protein) so that any hydrolysis observed could be assigned as esterase dependent or not.
Five rabbit corneas (e.g. New Zealand Whites) of approx. 50 mg each were sliced and scraped with a scalpel and tweezers until reduced to small (1-3 mm), thin pieces. These were transferred into a tared vial and accurately weighed, then diluted with 10 volumes aqueous PBS pH7.4
Sample was cooled intermittently on ice and shear homogenized for 3 minutes, then centrifuged for 3 min at 3000 rpm. The supernatant was pipetted off into a vial, and total protein concentration determined at 280 nm. Sample was stored at −78° C.
10 mM Compound stocks were diluted to 100 μM in a 96 deep-well plate: 10 μl of 10 mM Compound stock was added to 990 μl 50 mM HEPES, pH7.5 buffer.
Compounds were further diluted to 10 μM: 100 μl of 100 μM compound was added to 900 μl 50 mM HEPES, pH7.5 buffer.
Esterase homogenate was diluted to 300 ng/μl and 900 ng/μl
A heater shaker was set to 37° C. Into a suitable 96 well plate (Run Plate), 75 μl of 300 or 900 ng/μl esterase homogenate was pipetted into each of the required wells (2 min, 5 min, 10 min, 20 min and 45 min). The plate was sealed and then warmed at 37° C. for 5 min. Another 96 well PCR plate was put on ice (Kill Plate). To this was added 100 μl of MeCN to each well, labelled 0 min 2 min, 5 min, 10 min, 20 min and 45 min. The plate was covered to minimise evaporation. For the T=0 sample only, to the 100 μl cold MeCN stop solution was added 50 μl of 300 or 900 ng/μl esterase homogenate followed by 50 μl of 10 μM compound solution For the remaining timepoints, 75 μl of 10 μM compound solution was added to the Run Plate starting from T=45 min row and ending with T=2 min row. At the appropriate time point, 100 μl of the assay mixture was added to the matching kill plate well containing 100 μl of cold MeCN. Samples were analysed as soon as practicable by LCMS (Waters Xevo TQ-S or Micromass Ultima). Parent conjugate and parent concentrations were determined against appropriate standard response curves and the half-life (T1/2) of the parent conjugate was calculated using the peak area of the parent conjugate at each time point in the linear region of the log-linear plot.

A short description of data set [2]: Aqueous Hydrolysis Stability Assay. Type of data set: physicochemical. As to conditions: 50 mM HEPES buffer pH 7.5, read-out: T1/2 Aq Stability. Here is the method: Determination of aqueous stability of the test compounds was performed using HIPLC-MS. A test compound 10 mM stock solution was prepared in DMSO. 10 μl of the DMSO stock solution was dissolved in 990 μl of 50 mM HEPES pH 7.5 buffer or 1:1 (v/v) of Acetonitrile:Water to make a 100 μM solution. Final DMSO concentration was 1%. The solution was kept at room temperature and injected without delay into the LCMS (Waters Xevo TQ-S or Micromass Ultima). Additional injections were performed at appropriate time points. Half-life (T1/2) of the parent conjugate was calculated using the peak area of the parent conjugate at each time point in the linear region of the log-linear plot.

Setting [3] is: pH 7.5, Rabbit Cornea Homogenate 0.15 mg/ml total protein, read-out: T1/2 Esterase (min) (0.15 mg/ml Homogenate).
[4] abbreviates: pH 7.5, Rabbit Cornea Homogenate 0.45 mg/ml total protein, read-out: T1/2 Esterase (min) (0.45 mg/ml Homogenate).

`CC[C@H]1OC(=O)[C@H](C)[C@@H](O[C@H]2C[C@@](C)(OC)[C@@H](O)[C@H](C)O2)[C@H](C)[C@@H](O[C@@H]2O[C@H](C)C[C@H](N(C)C)[C@H]2O)[C@](C)(O)C[C@@H](C)CN(C)[C@H](C)[C@@H](OC(C)=O)[C@]1(C)O` [Compound 12, (2R,3R,4R,5R,8R,10R,11R,12S,13S,14R)-11-(((2S,3R,4S,6R)-4-(Dimethylamino)-3-hydroxy-6-methyltetrahydro-2H-pyran-2-yl)oxy)-2-ethyl-3,10-dihydroxy-13-(((2R,4R,5S,6S)-5-hydroxy-4-methoxy-4,6-dimethyltetrahydro-2H-pyran-2-yl)oxy)-3,5,6,8,10,12,14-heptamethyl-15-oxo-1-oxa-6-azacyclopentadecan-4-yl acetate]: the half-life at 5 µM in data set [1] (setting [3]) and in data set [1] (setting [4]) was above 120 min in each case. For the same compound, the half-life at 100 µM in data set [2] (HEPES pH 7.5, room temperature) is above 120 min.
Turning to `CC[C@H]1OC(=O)[C@H](C)[C@@H](O[C@H]2C[C@@](C)(OC)[C@@H](O)[C@H](C)O2)[C@H](C)[C@@H](O[C@@H]2O[C@H](C)C[C@H](N(C)C)[C@H]2OC(=O)COCCOCCOCCOCCO)[C@](C)(O)C[C@@H](C)CN(C)[C@H](C)[C@@H](O)[C@]1(C)O` [Compound 4, (2S,3R,4S,6R)-4-(Dimethylamino)-2-(((2R,3S,4R,5R,8R,10R,11R,12S,13S,14R)-2-ethyl-3,4,10-trihydroxy-13-(((2R,4R,5S,6S)-5-hydroxy-4-methoxy-4,6-dimethyltetrahydro-2H-pyran-2-yl)oxy)-3,5,6,8,10,12,14-heptamethyl-15-oxo-1-oxa-6-azacyclopentadecan-11-yl)oxy)-6-methyltetrahydro-2H-pyran-3-yl 14-hydroxy-3,6,9,12-tetraoxatetradecanoate], in data set [2] (HEPES pH 7.5, room temperature), the half-life at 100 µM was found to be 5.7 min.
On to `CC[C@H]1OC(=O)[C@H](C)[C@@H](O[C@H]2C[C@@](C)(OC)[C@@H](O)[C@H](C)O2)[C@H](C)[C@@H](O[C@@H]2O[C@H](C)C[C@H](N(C)C)[C@H]2O)[C@](C)(O)C[C@@H](C)CN(C)[C@H](C)[C@@H](OC(=O)CO)[C@]1(C)O` [Compound 11, (2R,3R,4R,5R,8R,10R,11R,12S,13S,14R)-11-(((2S,3R,4S,6R)-4-(Dimethylamino)-3-hydroxy-6-methyltetrahydro-2H-pyran-2-yl)oxy)-2-ethyl-3,10-dihydroxy-3-(((2R,4R,5S,6S)-5-hydroxy-4-methoxy-4,6-dimethyltetrahydro-2H-pyran-2-yl)oxy)-3,5,6,8,10,12,14-heptamethyl-15-oxo-1-oxa-6-azacyclopentadecan-4-yl 2-hydroxyacetate], for which the half-life at 5 µM in data set [1] (setting [3]) and in data set [1] (setting [4]) was above 120 min in each case. Also, in data set [2] (HEPES pH 7.5, room temperature), the half-life at 100 µM was above 120 min.
Turning to `CC[C@H]1OC(=O)[C@H](C)[C@@H](O[C@H]2C[C@@](C)(OC)[C@@H](O)[C@H](C)O2)[C@H](C)[C@@H](O[C@@H]2O[C@H](C)C[C@H](N(C)C)[C@H]2OC(=O)[C@H](C)OC(=O)[C@@H](C)O)[C@](C)(O)C[C@@H](C)CN(C)[C@H](C)[C@@H](O)[C@]1(C)O` [Compound 7, (2S,3R,4S,6R)-4-(Dimethylamino)-2-(((2R,3S,4R,5R,8R,10R,11R,12S,13S,14R)-2-ethyl-3,4,10-trihydroxy-13-(((2R,4R,5S,6S)-5-hydroxy-4-methoxy-4,6-dimethyltetrahydro-2H-pyran-2-yl)oxy)-3,5,6,8,10,12,14-heptamethyl-15-oxo-1-oxa-6-azacyclopentadecan-11-yl)oxy)-6-methyltetrahydro-2H-pyran-3-yl(S)-2-(((R)-2-hydroxypropanoyl)oxy)propanoate], the half-life at 100 µM in data set [2] (ND, estimated, in HEPES pH 7.5) is below 3 min.
Consider `CC[C@H]1OC(=O)[C@H](C)[C@@H](O[C@H]2C[C@@](C)(OC)[C@@H](O)[C@H](C)O2)[C@H](C)[C@@H](O[C@@H]2O[C@H](C)C[C@H](N(C)C)[C@H]2OC(=O)[C@@H](C)O)[C@](C)(O)C[C@@H](C)CN(C)[C@H](C)[C@@H](O)[C@]1(C)O` [Compound 2, (2S,3R,4S,6R)-4-(Dimethylamino)-2-(((2R,3S,4R,5R,8R,10R,11R,12S,13S,14R)-2-ethyl-3,4,10-trihydroxy-13-(((2R,4R,5S,6S)-5-hydroxy-4-methoxy-4,6-dimethyltetrahydro-2H-pyran-2-yl)oxy)-3,5,6,8,10,12,14-heptamethyl-15-oxo-1-oxa-6-azacyclopentadecan-11-yl)oxy)-6-methyltetrahydro-2H-pyran-3-yl (R)-2-hydroxypropanoate], for which the half-life at 100 µM in data set [2] (HEPES pH 7.5, room temperature) is below 3 min.
`CC[C@H]1OC(=O)[C@H](C)[C@@H](O[C@H]2C[C@@](C)(OC)[C@@H](O)[C@H](C)O2)[C@H](C)[C@@H](O[C@@H]2O[C@H](C)C[C@H](N(C)C)[C@H]2OC(=O)[C@@H](C)OC(C)=O)[C@](C)(O)C[C@@H](C)CN(C)[C@H](C)[C@@H](O)[C@]1(C)O` [Compound 8, (2S,3R,4S,6R)-4-(Dimethylamino)-2-(((2R,3S,4R,5R,8R,10R,11R,12S,13S,14R)-2-ethyl-3,4,10-trihydroxy-13-(((2R,4R,5S,6S)-5-hydroxy-4-methoxy-4,6-dimethyltetrahydro-2H-pyran-2-yl)oxy)-3,5,6,8,10,12,14-heptamethyl-15-oxo-1-oxa-6-azacyclopentadecan-11-yl)oxy)-6-methyltetrahydro-2H-pyran-3-yl (R)-2-acetoxypropanoate]: in data set [2] (ND, estimated, in HEPES pH 7.5), the half-life at 100 µM was below 3 min.
Take `CC[C@H]1OC(=O)[C@H](C)[C@@H](O[C@H]2C[C@@](C)(OC)[C@@H](O)[C@H](C)O2)[C@H](C)[C@@H](O[C@@H]2O[C@H](C)C[C@H](N(C)C)[C@H]2OC(=O)CO)[C@](C)(O)C[C@@H](C)CN(C)[C@H](C)[C@@H](O)[C@]1(C)O` [Compound 1, (2S,3R,4S,6R)-4-(Dimethylamino)-2-(((2R,3S,4R,5R,8R,10R,11R,12S,13S,14R)-2-ethyl-3,4,10-trihydroxy-13-(((2R,4R,5S,6S)-5-hydroxy-4-methoxy-4,6-dimethyltetrahydro-2H-pyran-2-yl)oxy)-3,5,6,8,10,12,14-heptamethyl-15-oxo-1-oxa-6-azacyclopentadecan-11-yl)oxy)-6-methyltetrahydro-2H-pyran-3-yl 2-hydroxyacetate]: the half-life at 100 µM in data set [2] (ND, estimated, in HEPES pH 7.5) was below 3 min.
With `CC[C@H]1OC(=O)[C@H](C)[C@@H](O[C@H]2C[C@@](C)(OC)[C@@H](O)[C@H](C)O2)[C@H](C)[C@@H](O[C@@H]2O[C@H](C)C[C@H](N(C)C)[C@H]2OC(=O)[C@@H](C)OC(=O)[C@H](CS)NC(C)=O)[C@](C)(O)C[C@@H](C)CN(C)[C@H](C)[C@@H](O)[C@]1(C)O` [Compound 6, (R)-1-(((2S,3R,4S,6R)-4-(Dimethylamino)-2-(((2R,3S,4R,5R,8R,10R,11R,12S,13S,14R)-2-ethyl-3,4,10-trihydroxy-13-(((2R,4R,5S,6S)-5-hydroxy-4-methoxy-4,6-dimethyltetrahydro-2H-pyran-2-yl)oxy)-3,5,6,8,10,12,14-heptamethyl-15-oxo-1-oxa-6-azacyclopentadecan-11-yl)oxy)-6-methyltetrahydro-2H-pyran-3-yl)oxy)-1-oxopropan-2-yl acetyl-L-cysteinate], the half-life at 100 µM in data set [2] (ND, estimated, in HEPES pH 7.5) is below 3 min.
The same measure, in the same setting: for `CC[C@H]1OC(=O)[C@H](C)[C@@H](O[C@H]2C[C@@](C)(OC)[C@@H](O)[C@H](C)O2)[C@H](C)[C@@H](O[C@@H]2O[C@H](C)C[C@H](N(C)C)[C@H]2OC(=O)CCCC[C@@H]2CCSS2)[C@](C)(O)C[C@@H](C)CN(C)[C@H](C)[C@@H](O)[C@]1(C)O` [Compound 9, (2S,3R,4S,6R)-4-(Dimethylamino)-2-(((2R,3S,4R,5R,8R,10R,11R,12S,13S,14R)-2-ethyl-3,4,10-trihydroxy-13-(((2R,4R,5S,6S)-5-hydroxy-4-methoxy-4,6-dimethyltetrahydro-2H-pyran-2-yl)oxy)-3,5,6,8,10,12,14-heptamethyl-15-oxo-1-oxa-6-azacyclopentadecan-11-yl)oxy)-6-methyltetrahydro-2H-pyran-3-yl 5-((R)-1,2-dithiolan-3-yl)pentanoate] the value was below 3 min.
